Measurements taken from BindingDB's records for PubMed 36324498 (Yangtze University, 2022).

Target: Tyrosine-protein kinase Tec (Homo sapiens) (UniProt P42680)
Experiment: Inhibition of TEC (unknown origin)

Tyrosine-protein kinase Tec (Homo sapiens), sequence (P42680 whole entry, looked up): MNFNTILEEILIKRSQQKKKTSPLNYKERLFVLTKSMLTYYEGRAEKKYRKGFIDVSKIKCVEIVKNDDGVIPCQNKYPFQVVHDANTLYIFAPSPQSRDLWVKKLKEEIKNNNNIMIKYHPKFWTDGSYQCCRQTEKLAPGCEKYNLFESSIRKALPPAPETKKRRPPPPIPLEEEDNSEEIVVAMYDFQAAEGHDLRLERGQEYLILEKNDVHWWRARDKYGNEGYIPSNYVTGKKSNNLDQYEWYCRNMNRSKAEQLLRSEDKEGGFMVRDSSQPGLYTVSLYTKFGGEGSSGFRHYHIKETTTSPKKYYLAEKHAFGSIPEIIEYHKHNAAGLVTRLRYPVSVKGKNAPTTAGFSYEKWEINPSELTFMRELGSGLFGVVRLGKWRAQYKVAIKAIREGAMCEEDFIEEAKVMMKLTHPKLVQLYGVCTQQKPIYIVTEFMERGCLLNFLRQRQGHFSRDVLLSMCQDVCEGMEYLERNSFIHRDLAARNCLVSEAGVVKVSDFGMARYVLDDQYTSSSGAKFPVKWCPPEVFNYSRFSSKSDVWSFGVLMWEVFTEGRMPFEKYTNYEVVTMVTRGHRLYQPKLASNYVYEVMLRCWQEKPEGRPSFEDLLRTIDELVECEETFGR

## N#CN1CCC[C@@H](n2nc(-c3ccc(Oc4ccc(F)cc4F)cc3)c(C(N)=O)c2N)C1
  IC50: 1.2 nM
